Assay results: PMC5729429, “Gimatecan exerts potent antitumor activity against gastric cancer in vitro and in vivo via AKT and MAPK signaling pathways” (Journal of Translational Medicine, 2017)

Legend:
NCI-N87 cells = test: Annexin V-PE/7-AAD apoptosis assay (flow cytometry), NCI-N87; assay type: cell-based, human; conditions: 1000 nM, 24 h
Experimental: Apoptosis was measured by staining with phycoerythrin (PE)-annexin V and 7-amino-actinomycin (7-AAD) (BD Biosciences, Erembodegem, Belgium) for 15 min at room temperature in the dark, followed by flow cytometry (BD Biosciences) within 1 h. Apoptosis was analyzed with FlowJo 7.6 software (FlowJo, LLC, Ashland, Oregon).
Cells were treated with gimatecan (0–1 µM) and irinotecan (0–1 µM) for 24 h and stained with Annexin V-PE/7-AAD. Sums of percentages of early apoptosis (Q3) and late apoptosis (Q2) were calculated as the total apoptosis ratios. c, d Pro- and anti-apoptotic proteins including Bcl-2, Bak, PARP and cleaved PARP were assessed by western-blotting in SNU-1 and NCI-N87 cells. Western-blotting bands were quantified and normalized by ImageJ. […] They are left out because no substance is present, and they are also barely readable.

[1] = tested on: normal immortalized gastric epithelial cell line; test: Growth inhibition of normal gastric epithelial cells; assay type: cell-based; conditions: data not shown
ABCG2 = tested on: ABCG2; set-up: method as in earlier work; conditions: ref 32 (Marchetti et al., 2007); cited from earlier work

Compound: CC[C@@]1(O)C(=O)OCc2c1cc1n(c2=O)Cc2c-1nc1ccccc1c2/C=N/OC(C)(C)C [Gimatecan, 7-t-butoxyiminomethylcamptothecin]
- proportion of apoptotic cells (NCI-N87 cells): 12.29 ± 2.24%
- growth inhibition in normal cells [1]: weak growth inhibition
- resistance resulting from ABCG2 expression (ABCG2): eight to tenfold
